According to ChEMBL document CHEMBL1201862, “PubChem BioAssay data set” (2004):
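Results reflect a 48-hour exposure of cells in 96-well plates to compound at five concentrations. Here, GI50 denotes the concentration required for 50% inhibition of growth.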 Activity calls are given as the source filed them. Rule as the data show it: active = GI50 up to about 1.1 µM and inactive = higher.

How the values were obtained:
Test in all cases: NCI-60 cell line screen, 48 h
[1] = test system: CCRF-CEM
[2] = test system: HCT-116
[3] = test system: UACC-257
[4] = test system: M14
[5] = test system: LOX IMVI
[6] = test system: BT-549
[7] = test system: SNB-19
[8] = test system: NCI-H226
[9] = test system: SK-OV-3
[10] = test system: OVCAR-3
[11] = test system: MDA-N
[12] = test system: SN12C
[13] = test system: EKVX
[14] = test system: TK-10
[15] = test system: SF-539
[16] = test system: SK-MEL-28
[17] = test system: A549
[18] = test system: HCC 2998
[19] = test system: UO-31
[20] = test system: KM12
[21] = test system: MDA-MB-231
[22] = test system: K562
[23] = test system: PC-3
[24] = test system: IGROV-1
[25] = test system: SK-MEL-5
[26] = test system: HOP-92
[27] = test system: NCI-H23
[28] = test system: RPMI-8226
[29] = test system: OVCAR-8
[30] = test system: Hs-578T
[31] = test system: SF-295
[32] = test system: HCT-15
[33] = test system: DU-145
[34] = test system: 786-0
[35] = test system: RXF 393
[36] = test system: HOP-62
[37] = test system: NCI-H522
[38] = test system: MOLT-4
[39] = test system: MCF7
[40] = test system: SNB-75
[41] = test system: UACC-62
[42] = test system: CAKI-1
[43] = test system: HL-60
[44] = test system: COLO 205
[45] = test system: SW-620
[46] = test system: MDA-MB-435
[47] = test system: SF-268
[48] = test system: NCI-H460
[49] = test system: U-251
[50] = test system: OVCAR-4
[51] = test system: NCI/ADR-RES
[52] = test system: SK-MEL-2
[53] = test system: A498
[54] = test system: OVCAR-5
[55] = test system: ACHN
[56] = test system: HT-29
[57] = test system: Malme-3M

c1ccc(C[P+]2(c3ccccc3)c3ccccc3-c3ccccc32)cc1
GI50 [1]: > 100 µM (inactive) | GI50 [2]: > 100 µM (inactive) | GI50 [3]: > 100 µM (inactive) | GI50 [4]: > 100 µM (inactive) | GI50 [5]: > 100 µM (inactive) | GI50 [6]: > 100 µM (inactive) | GI50 [7]: > 100 µM (inactive) | GI50 [8]: > 100 µM (inactive) | GI50 [9]: > 100 µM (inactive) | GI50 [10]: > 100 µM (inactive) | GI50 [11]: > 100 µM (inactive) | GI50 [12]: > 100 µM (inactive) | GI50 [13]: > 100 µM (inactive) | GI50 [14]: > 100 µM (inactive) | GI50 [15]: > 100 µM (inactive) | GI50 [16]: > 100 µM (inactive) | GI50 [17]: > 100 µM (inactive) | GI50 [18]: > 100 µM (inactive) | GI50 [19]: > 100 µM (inactive) | GI50 [20]: > 100 µM (inactive) | GI50 [21]: > 100 µM (inactive) | GI50 [22]: > 100 µM (inactive) | GI50 [23]: > 100 µM (inactive) | GI50 [24]: > 100 µM (inactive) | GI50 [25]: > 100 µM (inactive) | GI50 [26]: > 100 µM (inactive) | GI50 [27]: > 100 µM (inactive) | GI50 [28]: > 100 µM (inactive) | GI50 [29]: > 100 µM (inactive) | GI50 [30]: > 100 µM (inactive) | GI50 [31]: > 100 µM (inactive) | GI50 [32]: > 100 µM | GI50 [33]: > 100 µM (inactive) | GI50 [34]: > 100 µM (inactive) | GI50 [35]: > 100 µM (inactive) | GI50 [36]: > 100 µM (inactive) | GI50 [37]: > 100 µM (inactive) | GI50 [38]: > 100 µM (inactive) | GI50 [39]: > 100 µM (inactive) | GI50 [40]: > 100 µM (inactive) | GI50 [41]: > 100 µM (inactive) | GI50 [42]: > 100 µM (inactive) | GI50 [43]: > 100 µM (inactive) | GI50 [44]: > 100 µM (inactive) | GI50 [45]: > 100 µM (inactive) | GI50 [46]: > 100 µM (inactive) | GI50 [47]: > 100 µM (inactive)

COc1ccc(-c2c(C#N)c(-c3ccccc3)n(NS(=O)(=O)c3ccccc3)c(=O)c2C#N)cc1
GI50 [1]: 36.9 µM (inactive) | GI50 [48]: > 100 µM (inactive) | GI50 [2]: > 100 µM (inactive) | GI50 [3]: > 100 µM (inactive) | GI50 [4]: > 100 µM (inactive) | GI50 [5]: 60.4 µM (inactive) | GI50 [6]: > 100 µM (inactive) | GI50 [7]: 92.7 µM (inactive) | GI50 [8]: > 100 µM (inactive) | GI50 [49]: 71.8 µM (inactive) | GI50 [9]: > 100 µM (inactive) | GI50 [11]: > 100 µM (inactive) | GI50 [12]: > 100 µM (inactive) | GI50 [50]: > 100 µM (inactive) | GI50 [13]: > 100 µM (inactive) | GI50 [14]: > 100 µM (inactive) | GI50 [15]: 90.6 µM (inactive) | GI50 [16]: > 100 µM (inactive) | GI50 [17]: > 100 µM (inactive) | GI50 [18]: 81.5 µM (inactive) | GI50 [51]: 53.3 µM (inactive) | GI50 [20]: > 100 µM (inactive) | GI50 [21]: > 100 µM (inactive) | GI50 [22]: 65.9 µM (inactive) | GI50 [52]: 94.6 µM (inactive) | GI50 [23]: 59 µM (inactive) | GI50 [24]: 36.3 µM (inactive) | GI50 [25]: 55.1 µM (inactive) | GI50 [26]: 26.2 µM (inactive) | GI50 [28]: 29.2 µM (inactive) | GI50 [29]: 97.1 µM (inactive) | GI50 [30]: 41.6 µM (inactive) | GI50 [31]: > 100 µM (inactive) | GI50 [32]: > 100 µM | GI50 [53]: > 100 µM (inactive) | GI50 [34]: > 100 µM (inactive) | GI50 [54]: > 100 µM (inactive) | GI50 [35]: 76.4 µM (inactive) | GI50 [36]: 95.1 µM (inactive) | GI50 [37]: 20.5 µM (inactive) | GI50 [38]: 27.6 µM (inactive) | GI50 [55]: > 100 µM (inactive) | GI50 [39]: 50.5 µM (inactive) | GI50 [40]: 50.8 µM (inactive) | GI50 [41]: 79.8 µM (inactive) | GI50 [42]: > 100 µM (inactive) | GI50 [56]: > 100 µM (inactive) | GI50 [43]: 60.3 µM (inactive) | GI50 [44]: > 100 µM (inactive) | GI50 [45]: > 100 µM (inactive) | GI50 [46]: > 100 µM (inactive) | GI50 [57]: 41.6 µM (inactive) | GI50 [47]: 97.3 µM (inactive)
